Measurements reported in article PMC9967674, “Characterization and Functional Analysis of OcomOBP7 in Ophraella communa Lesage” (Insects, 2023).

Assays:
OcomOBP7 [1] = test: Fluorescence competitive binding assay (1-NPN displacement); design: species or system Ophraella communa; settings: 1-NPN 2 μM; for Ki: Ki = [IC50]/(1 + [1-NPN]/K1-NPN), OcomOBP7 2 μM, pH 7.4, read-out: Ki (dissociation constant); for IC50: recombinant OcomOBP7 2 μM, 50 mM Tris-HCl pH 7.4, ligand 2–20 μM
Experimental: Based on previous research on the volatiles of A. artemisiifolia, 26 standard chemical odors were selected to verify the binding characteristics of OcomOBP7 using a fluorescence binding assay (Table 2).
(§1) Fluorescence competition binding experiments were performed using an F-380 fluorescence spectrophotometer (Gangdong Technology, Tianjin, China), and the quartz cuvette was 1 cm wide. The excitation and emission slits were 10 nm, the sensitivity was 2 s, the emission wavelength range was 360–500 nm, the excitation wavelength was 337 nm, and the scanning speed was 1200 nm/min. The fluorescent probe, 1-NPN, was dissolved in a chromatographic methanol solution at a concentration of 1 mM. The target protein was diluted to 2 μM with 50 mM Tris-HCl (pH 7.4), and 1 mL of protein diluent was added to the cuvette. The 1-NPN fluorescent probe was added to the protein diluent to obtain a final concentration of 2–20 μM and was allowed to stand for 30 s after mixing. The maximum fluorescence value for each addition of 1-NPN was recorded, and three replicates were used. The 1-NPN fluorescent probe was added to the protein diluent at a final concentration of 2 μM, mixed well, and allowed to stand for 30 s. The maximum fluorescence intensity of 1-NPN was recorded. The odorant ligand was then added at a final concentration of 2–20 μM, and the maximum fluorescence value produced by the mixed solution was determined.
The dissociation constants Ki of OcomOBP7 and the fluorescent ligand compounds were calculated using the Scatchard equation. The formula is as follows: Ki = [IC50]/(1 + [1-NPN]/K1-NPN), where [1-NPN] represents the concentration of unbound 1-NPN, and K1-NPN is the binding constant of the OcomOBP7/1-NPN complex.

OcomOBP7 [2] = test: Binding of fluorescent probe 1-NPN to OcomOBP7 (binding curve, Scatchard); design: species or system Ophraella communa; settings: OcomOBP7 2 μM, 1-NPN 2–20 μM, pH 7.4; read-out: binding constant (Kd) of the protein and probe 1-NPN
Experimental: as §1
The dissociation constants Ki of OcomOBP7 and the fluorescent ligand compounds were calculated using the Scatchard equation. […]

O. communa antennae [3] = test system: O. communa antennae; design: method as in a previous experiment; settings: ref a previous experiment; cited from earlier work
O. communa antennae [4] = test: Electroantennography (EAG) after RNAi; format: in vivo, Ophraella communa; settings: odorant 10 μg/μL in n-hexane, 10 μL; for EAG response of O. communa antennae: after injection of dsRNA (dsOBP7), 48 h; for average EAG response of O. communa antennae: dsEGFP control group, 48 h after injection
Experimental: dsRNA templates were synthesized by PCR using primers containing the T7 promoter sequence as templates. dsRNA was synthesized in vitro using a T7 RNAi Transcription Kit (Ambion Inc., Waltham, MA, USA) according to the manufacturer’s instructions. dsRNA was dissolved in DEPC water and its concentration determined using a Nanophotometer P330 (Implen, Germany). The quality of RNA was determined using 1% gel electrophoresis. Female and male adults with an initial emergence of <12 h were injected. A Nanoliter 2000 microinjector (WPI, Sarasota, FL, USA) was used to inject 1 ng of dsRNA into the pronotum of beetles. dsEGFP was used as a control. After injection, the beetles were kept in Petri dishes and fed fresh A. artemisiifolia leaves daily.
Based on the fluorescence binding experimental results, α-pinene, ocimene, and myrcene were used for the electrophysiological experiments. […] Therefore, the odorants in this experiment were dissolved in n-hexane at a final concentration of 10 μg/μL, with n-hexane alone serving as a blank control. Filter paper strips with 10 μL of odorant were placed in a Pasteur Pipette for EAG experiments. The head and end of one antenna of the O. communa adult were cut off with a blade 48 h after the injection of dsRNA. A glass electrode filled with KCl conductivity liquid was inserted into the incision of the head of the O. communa and then connected to the electroantennogram system. The antenna incision was connected to a glass electrode at the other end using a micromanipulator. Each odorant was stimulated for 0.2 s with an interval of more than 30 s. Each treatment consisted of more than 20 biological replicates. Finally, the response curve was recorded using the EAG2000 software.

O. communa = test system: O. communa; design: method as in previous experiment results (unpublished data); settings: ref previous experiment results (unpublished data); cited from earlier work

Ki (OcomOBP7 [1]) [µM]	IC50 (OcomOBP7 [1]) [µM]	Compound	Kd (OcomOBP7 [2]) [µM]	activation of antennal response via the EAG method (O. communa antennae [3])	EAG response of O. communa antennae (O. communa antennae [4])	average EAG response of O. communa antennae (O. communa antennae [4])	attraction of the beetles (O. communa)
2.84 ± 0.2	4.48	C=C(C)C1CC=C(C)CC1 (racemic) [DL-Limonene]					
		c1ccc(Nc2cccc3ccccc23)cc1 [1-NPN]	1.47 ± 0.2				
0.48 ± 0.04	0.76	C=CC(=C)CC/C=C(\C)CCC=C(C)C [(E)-β-farnesene]		cannot activate the antennal response			
2.22 ± 0.11	3.5	C=C(C)[C@H]1CC=C(C)CC1 [(R)-(+)-Dipentene]					
20.37 ± 0.07	32.2	CC(=O)OC1CC2CCC1(C)C2(C)C (stereo not drawn) [Bornyl acetate]					
9.85 ± 0.66	15.5	C=C1C2CCC(C2)C1(C)C (stereo not drawn) [Camphene]					
3.97 ± 0.85	6.26	C=CC(=C)CCC=C(C)C [Myrcene]			0.09 ± 0.01	0.10 ± 0.01	significantly attract
1.23 ± 0.11	1.94	C=CC(C)=CCC=C(C)C [Ocimene]			0.14 ± 0.01	0.19 ± 0.01	significantly attract
4.75 ± 0.14	7.49	C=C1CCC2(C(C)C)CC12 (stereo not drawn) [Sabinene]					
0.67 ± 0.12	1.05	CCCCCCCC [n-Octane]					
6.55 ± 0.05	10.3	CC1=CCC2CC1C2(C)C (stereo not drawn) [α-Pinene]			0.28 ± 0.02	0.36 ± 0.03	significantly attract
2.91 ± 0.42	4.59	CC1=CC[C@H](C(C)C)C=C1 [α-phellandrene]					
10.9 ± 0.59	17.2	C=C1CCC2CC1C2(C)C (stereo not drawn) [β-Pinene]					
2.55 ± 0.4	4.02	(S)-(-)-Limonene					

Compound	Ki (OcomOBP7 [1]) [µM]	IC50 (OcomOBP7 [1]) [µM]	Kd (OcomOBP7 [2]) [µM]	activation of antennal response via the EAG method (O. communa antennae [3])	EAG response of O. communa antennae (O. communa antennae [4])	average EAG response of O. communa antennae (O. communa antennae [4])	attraction of the beetles (O. communa)
CC1=CCC(C(C)C)=CC1 [Y-Terpinene]	4.7 ± 0.32	7.42					
